Laboratory results as given in US20250257077A1, “BRIDGED BICYCLIC HETEROCYCLOALKYL PYRIDO-[3,4-d]PYRIDAZINE AMINE DERIVATIVES USEFUL AS NLRP3 INHIBITORS” (Ventus Therapeutics U.S., Inc., priority 2022, published 2025).
≈ marks a conversion by molar mass, not a printed value. Where two headings read alike, the source gives them in different places.

Columns and labels:
human NLRP3 = molecular target: T1, human NLRP3 (Homo sapiens, UniProt Q96P20); experiment: Human Whole Blood (hWB) NLRP3 Assay; assay type: cell-based; conditions: LPS priming, ATP activation, IL-1β levels
T1 construct: Human whole blood is drawn from healthy volunteers after obtaining written informed consent; from tissue
T1 sequence (Q96P20 whole entry): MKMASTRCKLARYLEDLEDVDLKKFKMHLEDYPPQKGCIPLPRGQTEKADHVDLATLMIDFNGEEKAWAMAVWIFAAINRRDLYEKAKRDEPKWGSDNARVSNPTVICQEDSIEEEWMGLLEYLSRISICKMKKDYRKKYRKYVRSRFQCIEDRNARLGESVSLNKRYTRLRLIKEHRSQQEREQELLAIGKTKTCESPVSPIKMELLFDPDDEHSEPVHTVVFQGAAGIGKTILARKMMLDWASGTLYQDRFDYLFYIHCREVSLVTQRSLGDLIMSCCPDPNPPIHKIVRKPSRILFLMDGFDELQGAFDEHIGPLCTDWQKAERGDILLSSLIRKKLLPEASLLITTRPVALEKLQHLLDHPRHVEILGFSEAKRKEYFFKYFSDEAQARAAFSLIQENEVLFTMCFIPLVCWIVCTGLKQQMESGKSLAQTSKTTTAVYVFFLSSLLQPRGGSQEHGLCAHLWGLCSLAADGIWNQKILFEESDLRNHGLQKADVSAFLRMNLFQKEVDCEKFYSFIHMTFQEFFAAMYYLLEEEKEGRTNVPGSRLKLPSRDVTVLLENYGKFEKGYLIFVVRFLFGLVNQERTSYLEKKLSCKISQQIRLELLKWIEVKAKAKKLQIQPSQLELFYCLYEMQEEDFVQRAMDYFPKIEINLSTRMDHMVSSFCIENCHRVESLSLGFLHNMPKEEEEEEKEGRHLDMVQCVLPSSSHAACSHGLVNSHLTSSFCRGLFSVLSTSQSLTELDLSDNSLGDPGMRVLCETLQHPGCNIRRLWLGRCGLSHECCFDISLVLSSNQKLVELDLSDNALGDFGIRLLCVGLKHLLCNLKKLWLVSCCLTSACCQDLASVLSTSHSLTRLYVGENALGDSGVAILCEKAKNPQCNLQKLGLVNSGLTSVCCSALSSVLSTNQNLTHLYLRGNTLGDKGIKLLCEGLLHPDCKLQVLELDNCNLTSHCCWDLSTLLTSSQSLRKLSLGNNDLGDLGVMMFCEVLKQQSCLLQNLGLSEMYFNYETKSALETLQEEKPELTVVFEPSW
Procedure: (ii) Human Whole Blood (hWB) NLRP3 Assay
Human whole blood is drawn from healthy volunteers after obtaining written informed consent. Heparin lithium coated tubes are used to collect blood from volunteers. Blood samples are distributed on 96 well plates using 90 μl per well. Priming is performed by adding 5 μl of LPS (026: B6; Sigma L-2654) at a final concentration of 1 μg/ml for 4.5 hours in a humidified incubator with 37° C. 5% CO2. Thirty minutes prior to NLRP3 activation, 5 μl of a 20× compound solution or vehicle (2% dimethylsulfoxide (DMSO)) is added to each well and plates were incubated on a shaker (450 rpm) in a humidified incubator with 37° C., 5% CO2. Activation is then performed by adding 3.3 μl of a 31× ATP solution per well. At the end of the 30 minutes stimulation, the plates are centrifuged (800 g, 10 min, room temperature) and the plasma from each well is frozen at −80° C. IL-1β levels in the supernatant were analyzed using a mesoscale discovery assay (MSD K151TUK) according to the manufacturers’ instructions.

[1] = Brain Levels (Kp and Kpu,u); assay type: in vivo, CDI mice; conditions: for Kp at 24 h: mice dosed at 20 mpk PO, whole brain AUC over 24 h divided by plasma AUC
Procedure: (iv) Brain Levels (Kp and Kpu,u)—NLRP3
The in vivo total brain to plasma ratio was assessed in CDI mice after oral administration of the compound. Blood was collected at several timepoints up to 24 h, and transferred into plastic micro centrifuge tubes with EDTA-K2 as anticoagulant. Blood samples were centrifuged at 4000 g for 5 minutes at 4° C., to obtain plasma, then immediately frozen and stored at −75±15° C., prior to analysis. Animals were terminally anaesthetized with a rising concentration of CO2 gas at about 1 minute. At selected timepoints, whole brains were removed from the skull, rinsed in cold PBS to remove blood, dried with clean gauze, then frozen in liquid nitrogen and kept at −75±15° C. before analysis. At the time of analysis, brain samples were homogenized with PBS by tissue weight (g) to PBS volume (mL) ratio 1:3.
Plasma and brain drug levels were quantified by LC/MS/MS on an AB Sciex Triple Quad 5500+instrument, after separation on a HALO 160 A ES-C18, 2.7 μm 2.1×50 mm column. Quantitation was performed using a calibration curve prepared in blank plasma or blank brain homogenate. The software WinNonlin (Phoenix™) was used for pharmacokinetic analysis from the concentrations versus time data, including the AUCinf and AUClast. The Kp ratio (total brain concentration over total plasma concentration) was calculated as (AUCtot,br)/(AUCtot,pl).
The unbound brain exposure was assessed as Kpuu, which is the free brain/free plasma concentration ratio (Cu,bt/Cu,pl). The Cu,br/Cu,pl ratios were obtained from in vivo total brain to plasma ratios (Ctot,br/Ctot,pl) by using in vitro determined Fu,br and Fu,pl.
Plasma protein binding and brain homogenate protein binding were measured by equilibrium dialysis in a HTDialysis plate. The dialysis membranes were soaked in ultrapure water for 60 minutes to separate strips, then in 20% ethanol for 20 minutes, finally in dialysis buffer for 20 minutes. The dialysis set up was assembled according to the manufacturer's instruction. Each cell received 150 μL of plasma or brain homogenate spiked with 1 mM of compound, and dialyzed against an equal volume of dialysis buffer (PBS). The dialysis plate was sealed and incubated in an incubator at 37° C. with 5% CO2 at 100 rpm for 6 hours. At the end of incubation, compound concentration was measured in both chambers by LC-MS/MS on a Triple Quad™ 5500 from AB Inc after separation on a XSelect Hss T3.2.5μ (2.1×30 mm) column. Free fraction (Fu) was calculated as (Peak Area Ratio buffer chamber/Peak Area Ratio plasma chamber). Kpuu=(AUCtot,br×Fu,br)/([…])
The Kpu,u was then calculated upon correcting this kp value with mouse plasma protein binding and mouse brain homogenates binding.
A Kpu,u value >0.3 is considered brain penetrant, and a Kpu,u value ≤0.3 is not considered brain penetrant. When the Kpu,u value is not determined, the Kp value may be useful as a metric of potential brain penetrance if the Kp value is >0.3.

[2] = Mouse Hepatocyte Stability Assay; assay type: in vitro ADME; conditions: mouse hepatocytes, 37° C.; read-out: Hep (mouse) (t½ min)
Procedure: (§1) (v) Mouse and Human Hepatocyte Stability Assays
(§2) A hepatocyte stability assay is a laboratory-based method used to determine the metabolic stability of a compound in hepatocytes (liver cells). This assay provides valuable information about how quickly a drug is metabolized in the liver and can be used to assess its potential effectiveness and safety in drug discovery.
(§3) In the assay, cither human or mouse hepatocytes are incubated with the test compound at a controlled temperature of 37° C., for different time periods (e.g., 5, 15, 30, 60, and 120 minutes). At each time point during the incubation, samples are taken, the reaction is terminated, and the amount of test compound remaining analyzed using LC-MS/MS to monitor the disappearance of the test compound over time (Gradient). […] See, e.g., Coe et al., Methods in Pharmacology & Toxicology (2008) 151.

[3] = Human Hepatocyte Stability Assay; assay type: in vitro ADME; conditions: human hepatocytes, 37° C.; read-out: Hep (human) (t½ min)
Procedure: as §1, §2, §3

[4] = Solubility Protocol in Phosphate Buffered Saline (PBS); assay type: physicochemical; conditions: for solubility kinetic at 2 h / solubility at 2 h: phosphate buffered saline (PBS), 18 °C, kinetic from dmso stock; for solubility kinetic at 2 h: aqueous buffer; for solubility kinetic at 2 h / Sol (PBS): PBS pH 7.4, 2 hours at room temperature, kinetic solubility; for solubility at 2 h: pH 7.4, aqueous buffer
Procedure: (vi) Solubility Protocol in Phosphate Buffered Saline (PBS)
The kinetic solubility of test compounds and control compounds was measured in commercial phosphate buffered saline (PBS), pH 7.4 (Wisent, Canada).
Briefly, a stock solution (20 mM DMSO for controls, and 10 mM DMSO for test compounds) was combined with PBS buffer to reach a targeted concentration of 400 μM for controls and 200 μM for test compounds. The spiked-PBS mixtures were then agitated on a VX-2500 multi-tube vortexer (VWR) for 2 hours at room temperature (18° C.). Following agitation, the samples were filtered on a glass fiber filter (1 μm) and the eluates were diluted 400-fold with a mixture of acetonitrile:water (1:1). Solubility determination was then performed against one standard sample prepared in high organic content at the expected top concentration. The lower limit of quantification was arbitrarily set at 1 μM (400-fold dilution of the top concentration) for assay controls, and 0.5 μM for test compounds. On each experimental run, nicardipine and imipramine were assessed as reference compounds for low and high solubility, respectively. All samples were assessed in triplicate and analyzed by LC-MS/MS (using a CTC PAL autosampler, Thermo Accela UPLC, and a Thermo Quantum mass spectrometer) using electrospray ionization against standards prepared in the same matrix

[5] = CDI, mouse, brain (whole brain homogenate) relative to plasma, oral, 20 mpk, brain levels, mice
[6] = CDI, mouse, brain (whole brain homogenate) relative to plasma, po, 20 mg/kg, Kp corrected with mouse plasma protein binding and mouse brain homogenates binding, 20 mpk PO, read-out: Kpu,u
[7] = CDI, mouse, brain (whole brain homogenate) relative to plasma, po, 20 mg/kg
[8] = CDI, mouse, brain (whole brain homogenate) relative to plasma, oral, 20 mpk, brain levels, unbound, mice, read-out: Kpu,u

SMILES | IC50 (human NLRP3) [µM] | Kp [1, 5] | Kpu,u [1, 6] | Kp at 24 h [1, 7] | Kpu,u ([1]; brain levels, unbound, mice) | half-life [2] [h] | half-life [3] [h] | solubility kinetic at 2 h [4] [µM] | solubility at 2 h [4] [µM] | Sol (PBS) [4] [µM] | Kpu,u [1, 8]
Oc1cc(Cl)ccc1-c1nnc(N[C@@H]2C[C@@H]3CC[C@H]2O3)c2cnccc12 (single isomer, unassigned) [Compound 3A*] | 1.16 | 0.3 | 0.15 | 0.3 | 0.15 — | 2.17 | > 4 | > 300 | > 300 |  | 
Oc1cc(C(F)(F)F)ccc1-c1nnc(N[C@@H]2C[C@@H]3CC[C@H]2O3)c2cnccc12 (single isomer, unassigned) [Compound 10A*] | 0.92 | 0.46 | 0.49 | 0.46 | 0.49 | 1.83 | 3.17 |  | 2.1 (≈ 0.845 µg/mL) | 2.1 | 
Cc1ccc(-c2nnc(N[C@H]3C[C@H]4CC[C@@H](C3)O4)c3cnccc23)c(O)c1 [Compound 2A*-r, 2-(4-(((1R,3r,5S)-8-oxabicyclo[3.2.1]octan-3-yl)amino)pyrido[3,4-d]pyridazin-1-yl)-5-methylphenol] | 0.33 | 0.27 | 0.16 | 0.27 |  | 1.18 | > 8 |  | 1.9 (≈ 0.689 µg/mL) | 1.9 | 0.16
Oc1cc(C(F)(F)F)ccc1-c1nnc(N[C@H]2C[C@H]3CC[C@@H](C2)O3)c2cnccc12 [Compound 4A*-r, 2-(4-(((1R,3r,5S)-8-oxabicyclo[3.2.1]octan-3-yl)amino)pyrido[3,4-d]pyridazin-1-yl)-5-(trifluoromethyl)phenol] | 1.1 | 0.13 | 0.09 | 0.13 |  | 3.33 | > 8 |  | 2.4 (≈ 0.999 µg/mL) | 2.4 | 0.09
Oc1cc(Cl)ccc1-c1nnc(N[C@H]2[C@@H]3CC[C@H]2COC3)c2cnccc12 [Compound 5A, 2-(4-(((1R,5S,8s)-3-oxabicyclo[3.2.1]octan-8-yl)amino)pyrido[3,4-d]pyridazin-1-yl)-5-chlorophenol] | 0.15 | 0.87 | 0.44 | 0.87 |  | 2.67 | > 4 |  | 25 (≈ 9.57 µg/mL) | 25 | 0.44
Cc1ccc(-c2nnc(N[C@H]3[C@@H]4CC[C@H]3COC4)c3cnccc23)c(O)c1 [Compound 6A, 2-(4-(((1R,5S,8s)-3-oxabicyclo[3.2.1]octan-8-yl)amino)pyrido[3,4-d]pyridazin-1-yl)-5-methylphenol] | 0.2 |  | 0.51 | 0.76 |  | 2.67 | > 4 | > 300 |  | >300 | 
Oc1cc(C(F)F)ccc1-c1nnc(N[C@H]2C[C@H]3CC[C@@H](C2)O3)c2cnccc12 [Compound 11A*-r, 2-(4-(((1R,3r,5S)-8-oxabicyclo[3.2.1]octan-3-yl)amino)pyrido[3,4-d]pyridazin-1-yl)-5-(difluoromethyl)phenol] | 0.81 |  | 0.06 | 0.08 |  | 3.83 | > 4 | 0.7 (≈ 0.279 µg/mL) |  | 0.7 | 
Oc1cc(C(F)(F)F)ccc1-c1nnc(N[C@H]2[C@@H]3CC[C@H]2COC3)c2cnccc12 [Compound 13A, 2-(4-(((1R,5S,8s)-3-oxabicyclo[3.2.1]octan-8-yl)amino)pyrido[3,4-d]pyridazin-1-yl)-5-(trifluoromethyl)phenol] | 0.34 |  | 0.08 | 0.1 |  | 1.67 | 4.83 | 1.4 (≈ 0.583 µg/mL) |  | 1.4 | 
Oc1cc(C(F)F)ccc1-c1nnc(N[C@H]2[C@@H]3CC[C@H]2COC3)c2cnccc12 [Compound 14A, 2-(4-(((1R,5S,8s)-3-oxabicyclo[3.2.1]octan-8-yl)amino)pyrido[3,4-d]pyridazin-1-yl)-5-(difluoromethyl)phenol] | 0.2 |  | 0.2 | 0.37 |  | 2 | > 8 | 11 (≈ 4.38 µg/mL) |  | 11 | 
Cc1ccc(-c2nnc(N[C@H]3[C@@H]4CC[C@H]3COC4)c3cnccc23)c(O)c1F [Compound 15A, 6-(4-(((1R,5S,8s)-3-oxabicyclo[3.2.1]octan-8-yl)amino)pyrido[3,4-d]pyridazin-1-yl)-2-fluoro-3-methylphenol] | 0.34 |  | 0.45 | 0.41 |  | 0.483 | > 8 | > 300 |  | >300 | 
